{"source": "patent US20100047231A1", "about": "“Immuno-Stimulant Combination for Prophylaxis and Treatment of Hepatitis C” (priority 2005, published 2010)", "type_in_all_cases": "in vivo", "key": {"HHD mice [1]": {"system": "HHD mice", "experiment": "Lythic activity of CTL (chromium release) of splenocytes from immunised HHD mice against peptide-loaded T2 target cells", "conditions": "100 μg NS3 + poly(I:C) + anti-CD40, two immunisations, sixty days after the second (FIG. 5B)", "method": "(§1) Groups of two mice were immunised via the i.p. route with 50 μg of anti-CD40. Four hours later, they were injected with 50 μg of poly(I:C) (i.v.) and different amounts of the antigens: NS3 protein or mixtures of NS3 with peptides (i.p.).\n(§2) In order to measure the CTL responses, the splenocytes coming from the immunised animals were incubated with peptides (10 μM) for 2 h at 37° C., washed twice and cultured on 24-well plates with a confluence of 7.5×10^6 cells/well. In experiments conducted for measuring the recognition of T1/HCVcon cells, 7.5×10^6 splenocytes of HHD mice were cultured with 7.5×10^5 T1/HCVcon cells previously treated with Mitomycin C (Sigma). In all cases, two days later, 2.5 U/ml of IL-2 (Boehringer-Mannheim GmbH, Germany) was added to the wells and 5 days later the cells were recovered in order to carry out chromium release assays.\n(§3) The lythic activity was measured by incubating different quantities of effector cells for 4 h with 3000 T2 target cells previously loaded with 51Cr, with and without peptide (target). […]\n(§4) The specific lysis percentage was calculated according to the formula: […]\n(§5) where the spontaneous lysis (measured as cpmspontaneous) corresponds to target cells incubated in the absence of effector cells, and the maximum lysis (cpmmaximum) is obtained by incubating target cells with 5% Tritonx100."}, "T1/HCVcon cells": {"system": "T1/HCVcon cells", "experiment": "Lythic activity of splenocytes from immunised HHD mice against T1/HCVcon cells (chromium release)", "conditions": "100 μg NS3 + poly(I:C) + anti-CD40, six days after immunisation, splenocytes stimulated five days with T1/HCVcon cells and IL-2 (FIG. 4)", "method": "as §1, §2, §3, §4, §5"}, "HHD mice [2]": {"system": "HHD mice", "experiment": "IFN-γ production (ELISA) by splenocytes from immunised HHD mice stimulated with peptides or NS3", "conditions": "100 μg NS3 + poly(I:C) + anti-CD40, two immunisations, sixty days after the second", "method": "as §1\nSplenic cells were resuspended in complete medium and plated at 8×10^5 cells/well in 0.2 ml on 96-well plates with U-shaped bottom, in the absence or presence of peptides or of the recombinant NS3 protein of the HCV.\nTwo days afterwards, the supernatants were collected for measuring the presence of IFN-γ by means of ELISA (BD-Pharmingen), following the manufacturer's instructions."}}, "data": [{"substance": "NS3 protein (SEQ. ID. NO: 2): Recombinant polypeptide with 635-amino-acid complete HCV NS3 sequence and His tail, expressed in E. coli; given with poly(I:C) and anti-CD40", "values": [{"measurement": "Lasting CD8+ response, lythic activity against target cells loaded with peptide 1073", "setting": "HHD mice [1]", "result": "capable of lysing target cells pulsed with the peptide 1073"}, {"measurement": "Lysis of T1/HCVcon cells versus T1 control cells", "setting": "T1/HCVcon cells", "result": "greater capacity to lyse T1 cells, which expressed proteins of the HCV"}, {"measurement": "Lasting CD4+ response, IFN-γ production on stimulation with NS3 protein", "setting": "HHD mice [2]; NS3 1 μg/ml, 48 h (FIG. 5C)", "result": "potent and lasting CD4+ responses"}, {"measurement": "Lasting CD8+ response, production of IFN-γ on stimulation with peptide 1073", "setting": "HHD mice [2]; peptide 1073 10 μM, 48 h (FIG. 5A)", "result": "capable of producing large amounts of IFN-γ"}]}]}
